PubChem BioAssay (NCI)
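A five-concentration, 48-hour dose response in 96-well plates underlies each endpoint, interpolated linearly between surrounding concentrations. The concentration for 50% growth inhibition is given as GI50. TGI is the concentration that stops growth completely.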

Key:
Experiment in all cases: growth of human tumour cells (NCI), 48 h
CCRF-CEM leukemia = system: CCRF-CEM leukemia
DMS 114 small cell lung = system: DMS 114 small cell lung
HL-60(TB) leukemia = system: HL-60(TB) leukemia
LXFL 529 NSCLC = system: LXFL 529 NSCLC
NCI-H226 lung = system: NCI-H226 lung
NCI-H460 lung = system: NCI-H460 lung
OVCAR-8 ovarian = system: OVCAR-8 ovarian
RXF 393 renal = system: RXF 393 renal
SNB-19 CNS = system: SNB-19 CNS
BT-549 breast = system: BT-549 breast

Row | Compound | TGI (CCRF-CEM leukemia) | TGI (DMS 114 small cell lung) | TGI (HL-60(TB) leukemia) | TGI (LXFL 529 NSCLC) | TGI (NCI-H226 lung) | TGI (NCI-H460 lung) | TGI (OVCAR-8 ovarian) | TGI (RXF 393 renal) | TGI (SNB-19 CNS) | TGI (BT-549 breast) | GI50 (CCRF-CEM leukemia) | GI50 (DMS 114 small cell lung) | GI50 (HL-60(TB) leukemia) | GI50 (LXFL 529 NSCLC) | GI50 (NCI-H226 lung) | GI50 (NCI-H460 lung) | GI50 (OVCAR-8 ovarian) | GI50 (RXF 393 renal) | GI50 (SNB-19 CNS)
1 | O=C(NCC(O)CNC(=O)C(F)(F)F)C(F)(F)F | > 100 µM | > 100 µM | > 100 µM | > 100 µM | > 100 µM | > 100 µM | > 100 µM | > 100 µM | > 100 µM |  |  |  |  |  |  |  |  |  | 
2 | COc1ccc2nc3ccccc3c(NCCCN(C)CCCl)c2c1 | 1.58 µM | 1.68 µM |  | 1.53 µM | 1.62 µM | 1.07 µM | 2.02 µM | 1.45 µM | 2.06 µM | 2.57 µM |  |  |  |  |  |  |  |  | 
3 | CC(C)(C)OC(=O)NC(CO)c1cccc(OCc2ccccc2)c1 (stereo not given) | > 100 µM | > 100 µM | 43.8 µM | > 100 µM | > 100 µM | > 100 µM | > 100 µM | > 100 µM | > 100 µM |  |  |  |  |  |  |  |  |  | 
4 | CNC(=O)c1cccc2c(Nc3ccc(NS(C)(=O)=O)cc3OC)c3cccc(C)c3nc12 | 0.197 µM | 1.25 µM | 0.0552 µM | 6.74 µM | 1.05 µM | 0.816 µM | 5.98 µM | 3.52 µM | 5.04 µM |  |  |  |  |  |  |  |  |  | 
5 | c1ccc2c(c1)[nH]c1c2nc2ncccn21 | > 100 µM | > 100 µM |  | > 100 µM | > 100 µM | > 100 µM | > 100 µM | > 100 µM | > 100 µM |  |  |  |  |  |  |  |  |  | 
6 | O=c1oc(=O)c2oc3ccccc3oc1=2 | > 100 µM | > 100 µM | > 100 µM | > 100 µM | > 100 µM | > 100 µM | > 100 µM | > 100 µM | > 100 µM |  |  |  |  |  |  |  |  |  | 
7 | CCC[CH2][Sn]1([CH2]CCC)[O]C(=O)c2ccc(C)cc2[O]1 | 0.874 µM | 0.587 µM | 1.01 µM | 0.372 µM | 2.93 µM | 4.12 µM | 2.1 µM | 0.839 µM | 1.12 µM |  | 0.222 µM | 0.21 µM | 0.273 µM | 0.158 µM | 1.5 µM | 1.77 µM | 0.818 µM | 0.306 µM | 0.32 µM
8 | N#C/C(=C/Sc1ccccc1)C(=O)O | > 100 µM | 35.8 µM | > 100 µM | > 100 µM | 58.7 µM | > 100 µM | 36.9 µM | 58.2 µM | > 100 µM |  |  |  |  |  |  |  |  |  | 
9 | COC(=O)c1ccc(Cl)cc1NC(=O)C1CCCCC1 |  | > 100 µM |  | > 100 µM | > 100 µM |  | > 100 µM | > 100 µM | > 100 µM |  |  |  |  |  |  |  |  |  | 
10 | COc1ccc2oc(C(=O)O)c3c2c1CCC3 | > 100 µM | > 100 µM | > 100 µM | > 100 µM |  | > 100 µM | > 100 µM | > 100 µM | > 100 µM |  |  |  |  |  |  |  |  |  | 
11 | O=C1c2ccccc2C(=O)N1C/C=C/CO | > 100 µM | > 100 µM | > 100 µM | > 100 µM | > 100 µM | > 100 µM | > 100 µM | > 100 µM | > 100 µM |  |  |  |  |  |  |  |  |  | 
12 | OC1C2CCC1C1C3C=CC(C3)C21 (stereo not given) | > 100 µM | > 100 µM | > 100 µM | > 100 µM | > 100 µM | > 100 µM | > 100 µM | > 100 µM | > 100 µM |  |  |  |  |  |  |  |  |  | 
13 | NCCN1C(=O)C2C3c4ccccc4C(c4ccccc43)C2C1=O (stereo not given) | > 100 µM | > 100 µM | > 100 µM | > 100 µM | > 100 µM | > 100 µM | > 100 µM |  | > 100 µM |  |  |  |  |  |  |  |  |  | 
14 | C[n+]1ccc(-c2c3nc(c(-c4cc[n+](C)cc4)c4ccc([n-]4)c(-c4cc[n+](C)cc4)c4nc(c(-c5cc[n+](C)cc5)c5ccc2[n-]5)C=C4)C=C3)cc1.[I-].[Zn+2] | 44.5 µM | 22.6 µM | 42 µM | 43 µM | 48.3 µM | 53.5 µM | 61.1 µM | 7.91 µM | 45.5 µM |  | 14.1 µM | 7.11 µM | 21.5 µM | 20.1 µM | 14.9 µM | 23.5 µM | 23.6 µM | 3.03 µM | 19.4 µM
15 | COc1cc2c(cc1OC)C(=O)Cc1ccc(OC)c(OC)c1CN(C)CC2 | > 100 µM | > 100 µM |  | > 100 µM | > 100 µM | 84.4 µM | > 100 µM |  | > 100 µM |  |  |  |  |  |  |  |  |  | 
